Here are results for three molecules from patent US7732480B2, “Bicyclic compounds as modulators of androgen receptor function and method” (Bristol-Myers Squibb Company, priority 2004, dated 2010).

One may read the Kd as a measure of binding affinity in units of concentration.

The target of assay [1] is T1, AR (Rattus norvegicus, UniProt P15207).
T1 sequence (P15207 1-902): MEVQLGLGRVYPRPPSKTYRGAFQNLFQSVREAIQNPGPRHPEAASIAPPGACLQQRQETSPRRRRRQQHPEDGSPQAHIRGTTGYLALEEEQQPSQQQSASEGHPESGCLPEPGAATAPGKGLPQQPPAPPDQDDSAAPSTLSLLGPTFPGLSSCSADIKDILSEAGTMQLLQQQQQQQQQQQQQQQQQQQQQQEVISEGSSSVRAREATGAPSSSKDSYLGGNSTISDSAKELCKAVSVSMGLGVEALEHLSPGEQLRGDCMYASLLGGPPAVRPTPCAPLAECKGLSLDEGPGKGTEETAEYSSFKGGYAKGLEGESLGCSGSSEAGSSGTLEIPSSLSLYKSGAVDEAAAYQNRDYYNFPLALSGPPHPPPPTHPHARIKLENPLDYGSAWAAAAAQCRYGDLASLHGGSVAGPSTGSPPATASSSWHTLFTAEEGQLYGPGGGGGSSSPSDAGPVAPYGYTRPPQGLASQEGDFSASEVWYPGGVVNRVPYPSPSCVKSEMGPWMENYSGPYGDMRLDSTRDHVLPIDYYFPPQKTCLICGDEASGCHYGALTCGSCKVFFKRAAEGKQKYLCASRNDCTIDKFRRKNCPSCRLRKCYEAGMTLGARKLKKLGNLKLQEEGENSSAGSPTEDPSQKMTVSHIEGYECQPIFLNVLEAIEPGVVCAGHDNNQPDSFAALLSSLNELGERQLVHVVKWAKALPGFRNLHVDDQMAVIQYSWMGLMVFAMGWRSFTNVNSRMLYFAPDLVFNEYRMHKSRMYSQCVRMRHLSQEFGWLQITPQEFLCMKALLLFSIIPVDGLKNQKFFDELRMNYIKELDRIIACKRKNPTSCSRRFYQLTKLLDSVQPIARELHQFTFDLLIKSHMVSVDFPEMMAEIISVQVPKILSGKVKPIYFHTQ
Conditions: castrated rats. From the text:
The activity of compounds of the present invention as AR agonists was investigated in an immature male rat model, a recognized test of anabolic effects in muscle and sustaining effects in sex organs for a given compound, as described in L. G. Hershberger et al., Proc. Soc. […] Biol. Med., 83, 175 (1953); B. L. Beyler et al, “Methods for evaluating anabolic and catabolic agents in laboratory animals”, J. Amer. Med. Women's Ass., 23, 708 (1968); H. Fukuda et al., “Investigations of the levator ani muscle as an anabolic steroid assay”, Nago Dai. Yak. Ken. Nem. 14, 84 (1966) the disclosures of which are herein incorporated by reference.
The basis of this assay lies in the well-defined action of androgenic agents on the maintenance and growth of muscle tissues and sexual accessory organs in animals and man. […] J. Anat. […] Ital. Biol. Sper. […] II. […] Ital. Biol. Sper. 42, 1600 (1966); A. Boris et al., Steroids 15, 61 (1970). As described above, the effects of androgens on maintenance of male sexual accessory organs, such as the prostate and seminal vesicles, is well described. Castration results in rapid involution and atrophy of the prostate and seminal vesicles. This effect can be reversed by exogenous addition of androgens. […]

Assay [2] has as its target glucocorticoid receptor (Homo sapiens, UniProt P04150). The settings on record: concentration ≦10 μM; A549 cells, 10 ng/mL PMA, 7 h. On the procedure: The AP-1 assay is a cell-based luciferase reporter assay. A549 cells, which contain endogenous glucocorticoid receptor, were stably transfected with an AP-1 DNA binding site attached to the luciferase gene. Cells are then grown in RPMI+10% fetal calf serum (charcoal-treated)+Penicillin/Streptomycin with 0.5 mg/mL geneticin. Cells are plated the day before the assay at approximately 40000 cells/well. On assay day, the media is removed by aspiration and 20 μL assay buffer (RPMI without phenol red+10% FCS (charcoal-treated)+Pen/Strep) is added to each well. At this point either 20 μL assay buffer (control experiments), the compounds of the present invention (“test compounds”) (dissolved in DMSO and added at varying concentrations) or dexamethasome (100 nM in DMSO, positive control) are added to each well. The plates are then pre-incubated for 15 min at 37° C., followed by stimulation of the cells with 10 ng/mL PMA. The plates are then incubated for 7 h at 37° C. after which 40 μL luciferase substrate reagent is added to each well. Activity is measured by analysis in a luminometer as compared to control experiments treated with buffer or dexamethasome.

Assay [3] concerns the target wild type AR. Conditions: read-out: Kd for [3H]-DHT; MDA 453 cells (wild type AR), Scatchard analysis. From the text:
For the saturation analysis, the difference between the total binding and the non-specific binding, was defined as specific binding. […] See e.g. D. Rodbard, Mathematics and statistics of ligand assays: an illustrated guide: In: J. Langon and J. J. Clapp, eds., Ligand Assay, Masson Publishing U.S.A., Inc., New York, pp. 45-99, (1981), the disclosure of which is herein incorporated by reference.
Two replicates were used for each sample.
[formula] After correcting for non-specific binding, IC50 values were determined. […] C2C12 Mouse Myoblast Transactivation Assay

Sequence of glucocorticoid receptor (P04150 whole entry): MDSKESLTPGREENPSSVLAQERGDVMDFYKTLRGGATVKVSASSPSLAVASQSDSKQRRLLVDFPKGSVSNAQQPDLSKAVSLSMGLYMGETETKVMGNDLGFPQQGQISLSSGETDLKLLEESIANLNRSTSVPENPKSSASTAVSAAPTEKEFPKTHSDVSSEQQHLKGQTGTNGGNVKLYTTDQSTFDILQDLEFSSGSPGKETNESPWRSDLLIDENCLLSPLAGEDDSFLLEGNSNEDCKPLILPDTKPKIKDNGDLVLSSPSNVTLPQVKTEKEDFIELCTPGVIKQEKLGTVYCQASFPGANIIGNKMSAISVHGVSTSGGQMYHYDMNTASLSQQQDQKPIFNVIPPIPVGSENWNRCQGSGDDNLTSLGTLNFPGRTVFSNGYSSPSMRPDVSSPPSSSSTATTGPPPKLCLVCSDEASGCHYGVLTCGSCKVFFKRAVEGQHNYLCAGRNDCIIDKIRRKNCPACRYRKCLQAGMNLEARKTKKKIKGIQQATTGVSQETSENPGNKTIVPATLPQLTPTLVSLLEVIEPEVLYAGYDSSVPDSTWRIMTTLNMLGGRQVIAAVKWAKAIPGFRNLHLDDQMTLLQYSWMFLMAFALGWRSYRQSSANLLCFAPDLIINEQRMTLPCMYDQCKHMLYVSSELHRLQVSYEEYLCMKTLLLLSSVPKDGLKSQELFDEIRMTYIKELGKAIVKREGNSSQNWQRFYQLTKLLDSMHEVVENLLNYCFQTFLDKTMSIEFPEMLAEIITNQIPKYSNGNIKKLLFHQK

For the molecule `CCC(=O)O[C@H]1CC[C@H]2[C@@H]3CCC4=CC(=O)CC[C@]4(C)[C@H]3CC[C@]12C` [TP, testosterone propionate], in assay [1], the “EC50 (increase in organ weight)” value is listed as approximately 0.03 mg. The “potency relative to free T” value in assay [1] (organ weight increase) is listed as 10-30 fold.
As for `C[C@@H]1C[C@H]2[C@@H]3CCC4=CC(=O)C=C[C@]4(C)[C@@]3(F)[C@@H](O)C[C@]2(C)[C@@]1(O)C(=O)CO` [dexamethasone], in assay [2], the “% inhibition of the AP-1 reporter system vs buffer control with PMA” value was found to be 65%.
On to “tritiated dihydrotestosterone [[^3H]-DHT]”, for which the Kd in assay [3] turned out to be 0.7 nM.
